The data set relates to TS mRNA. As to the kind of experiment: Inhibition of TS expression by siRNA in DLD-1/5FU cells, Taqman real-time PCR. The class given is cell-based, human. The following applies: 72 hours after transfection; for effects of inhibiting TS expression (in words): siRNA 25 nM. As for the experimental part:
The DLD-1/5FU human colorectal cancer cell lines (Int. J. Oncol., 2000; 17: 277-83) that had been resported to be resistant to 5-FU were cultured in a 6-cm culture dish for 24 hours until the cells reached 50% to 60% confluence.
Subsequently, siRNA molecules (i.e., TS-siRNA1 molecules (sense strand: SEQ ID NO: 1; antisense strand: SEQ ID NO: 2), TS-siRNA2 molecules (sense strand: SEQ ID NO: 3; antisense strand: SEQ ID NO: 4), and TS-siRNA3 molecules (sense strand: SEQ ID NO: 5; antisense strand: SEQ ID NO: 6)) were chemically synthesized, and 2.5 ml of a solution containing each of the above siRNA molecules (final concentration: 25 nM) and 25 μl of TransIT-TKO Transfection Reagent (Minis) was transfected into the above cells in accordance with a conventional technique. Scrambled siRNA (TS-Scra1) was used as a negative control.
The effects of siRNA molecules on inhibition of TS expression were inspected via Taqman real-time PCR (ABI PRISM 7700 Sequence Detection System; Applied Biosystems) 72 hours after transfection. The Assays-on-Demand Gene Expression Assay Mix (assay ID Hs00426591_ml; PCR product size: 87 bp; Applied Biosystems) was used for TS primers and probes. GAPDH was used as the internal standard (Assays-on-Demand Gene Expression System; assay ID: Hs99999905_ml; PCR product size: 122 bp; Applied Biosystems).
For orientation: Quantitative PCR measures a nucleic acid by following its amplification.

Regarding “TS-siRNA1: chemically synthesized siRNA targeting TS; sense strand SEQ ID NO: 1, antisense strand SEQ ID NO: 2 (sense GUAACACCAUCGAUCAUGA; antisense UCAUGAUCGAUGGUGUUAC; listed as RNA, chemistry not given here)”, the “effects on inhibition of TS expression” value (siRNA final concentration 25 nM, GAPDH internal standard) was 83.5±1.3%.
For the substance “TS-siRNA2: chemically synthesized siRNA targeting TS; sense strand SEQ ID NO: 3, antisense strand SEQ ID NO: 4 (sense GAAUACAGAGAUAUGGAAU; antisense AUUCCAUAUCUCUGUAUUC; listed as RNA, chemistry not given here)”, the “effects of inhibiting TS expression (in words)” value is “exhibited effects of inhibiting TS expression”.
Regarding “TS-siRNA3: chemically synthesized siRNA targeting TS; sense strand SEQ ID NO: 5, antisense strand SEQ ID NO: 6 (sense CGAUCAUGAUGUAGAGUGU; antisense ACACUCUACAUCAUGAUCG; listed as RNA, chemistry not given here)”, the “effects of inhibiting TS expression (in words)” value was “exhibited effects of inhibiting TS expression”.

(Values after patent US8524876B2, “RNAi molecule targeting thymidylate synthase and application thereof” (Delta-Fly Pharma, Inc., priority 2009, dated 2013).)
